Values joined by “and” are separate entries in the source; they are usually repeats but may differ in a detail not shown here. Equal entries are not always repeated.
What was measured:
[1] = target: T1, neuronal dopamine re-uptake transporter (Homo sapiens, UniProt Q01959); assay: functional monoamine transporter assay: [3H]-dopamine uptake in CHO-K1 cells expressing dopamine transporters; format: cell-based; settings: functional assays, read-out: affinity for the neuronal dopamine re-uptake transporter
T1 construct: expressed in transfected cells
T1 sequence (Q01959 whole entry): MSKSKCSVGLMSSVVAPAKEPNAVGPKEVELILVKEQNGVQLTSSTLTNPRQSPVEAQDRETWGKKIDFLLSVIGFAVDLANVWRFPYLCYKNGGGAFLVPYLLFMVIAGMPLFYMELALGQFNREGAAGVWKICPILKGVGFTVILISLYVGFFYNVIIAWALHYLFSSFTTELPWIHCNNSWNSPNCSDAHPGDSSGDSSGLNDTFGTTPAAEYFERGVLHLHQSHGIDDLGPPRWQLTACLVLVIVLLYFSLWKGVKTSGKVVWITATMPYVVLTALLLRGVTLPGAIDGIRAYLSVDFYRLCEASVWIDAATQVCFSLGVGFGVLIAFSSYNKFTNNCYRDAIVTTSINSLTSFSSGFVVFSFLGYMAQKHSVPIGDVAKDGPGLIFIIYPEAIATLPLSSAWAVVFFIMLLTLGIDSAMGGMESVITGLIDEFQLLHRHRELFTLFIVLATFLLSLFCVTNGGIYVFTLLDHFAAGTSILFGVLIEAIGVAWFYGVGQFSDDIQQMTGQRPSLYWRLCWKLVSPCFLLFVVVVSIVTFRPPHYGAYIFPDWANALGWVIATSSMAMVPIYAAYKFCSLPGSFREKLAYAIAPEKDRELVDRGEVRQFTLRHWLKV
Experimental: Using functional monoamine transporter assays, we determined the potential drug targets for (R)-phenylpiracetam.
Recombinant Chinese hamster ovary (CHO) cells CHO-K1 (ATCC® CCL-61 ™) cells stably expressing dopamine transporters are plated. The cells (2 x 10^5/ml) are pre-incubated with test compound and/or vehicle in modified Tris-HEPES buffer pH 7.1 at 25°C for 20 min and 50 nM [^3H]-dopamine is then added for an additional 15 min incubation period. Non-specific signal is determined in the presence of 10 µM nomifensine. Cells are then solubilized with 1% SDS lysis buffer. Reduction of [^3H]-dopamine uptake by 50 percent or more (≥50%) relative to vehicle controls indicates significant inhibitory activity. Compounds are screened at 10, 1, 0.1, 0.01 and 0.001 µM. These same concentrations are concurrently applied to a separate group of untreated cells and evaluated for possible compound-induced cytotoxicity only if significant inhibition of uptake is observed.

[2] = brain microdialysis: concentration of (R)-phenylpiracetam in the brain after i.p. application; format: in vivo, rats; settings: rat
Experimental: EXAMPLE 3: Assessment of the concentration of (R)-phenylpiracetam in the brain using brain microdialysis - Figs. 2, 14, 15
Naive adult male Sprague-Dawley rats (240-360 g, Janvier, France) were used for the study kept under standard conditions. All experiments were conducted during the light period of the day-night cycle.
Siliconized guide cannula (MAB 6.14.IC) (MAB, Stockhom, Sweden) were implanted unilaterally in pentobarbital anaesthetized animals aiming at the caudatus putamen (CPu; AP: +0.1, LM: ± 2.6, DV: -3.2 mm relative to bregma; -3.3 mm interaural) according to the atlas of Paxinos and Watson (loc. cit.). Rats were given at least 3 days to recover from surgery before starting microdialysis experiments.
Microdialysis experiments were performed in the home cage of the animal. A microdialysis probe (MAB 6.14.4.; 4 mm exposed membrane length, polyethersulfone (PES) membrane; MAB, Stockholm, Sweden) was lowered through the guide cannula into the CPu (ventral position of probe tip with reference to the skull: -7.2 mm) ca. 12 hours before the sampling and left in place for the whole testing period.
The probes were perfused with aCSF at a flow rate of 2 µl/min using a CMA 102 perfusion pump (CMA, Solna, Sweden). The composition of the aCSF was 147 mM Na^+, 2.7 mM K^+, 1.2 mM Ca^2+, 0.85 mM Mg^2+, 0.04 mM ascorbic acid. […]

With NC(=O)CN1C[C@@H](c2ccccc2)CC1=O [(R)-phenylpiracetam] as the molecule, how does the IC50 [1] read?
Its IC50 is ~13 µM and 13 µM.

What about the “free concentration in extracellular fluid in the brain” value ([2]; 50 mg/kg) of the same molecule?
The value was 20 µM.

And the “free concentration in extracellular fluid in the brain” value ([2]; 100 mg/kg)?
Its value is 50 µM.
